Among the data in US9290453B2 (Merck Sharp & Dohme Corp., priority 2010, dated 2016) are Ki values, retold here.

pKi: −log10 of the molar value. Where a name gives a salt, the structure may show the parent alone.

In general, pKi refers to the Ki on a negative log10 scale, so that one unit is a factor of ten. Read a high pKi as a low Ki.

In this experiment the target is T1, hCRTH2 (Homo sapiens, UniProt Q9Y5Y4).
T1 construct: expressed in transfected cells; host or cells: HEK (human embryonic kidney) cells expressing hCRTH2
T1 sequence (Q9Y5Y4 1-395): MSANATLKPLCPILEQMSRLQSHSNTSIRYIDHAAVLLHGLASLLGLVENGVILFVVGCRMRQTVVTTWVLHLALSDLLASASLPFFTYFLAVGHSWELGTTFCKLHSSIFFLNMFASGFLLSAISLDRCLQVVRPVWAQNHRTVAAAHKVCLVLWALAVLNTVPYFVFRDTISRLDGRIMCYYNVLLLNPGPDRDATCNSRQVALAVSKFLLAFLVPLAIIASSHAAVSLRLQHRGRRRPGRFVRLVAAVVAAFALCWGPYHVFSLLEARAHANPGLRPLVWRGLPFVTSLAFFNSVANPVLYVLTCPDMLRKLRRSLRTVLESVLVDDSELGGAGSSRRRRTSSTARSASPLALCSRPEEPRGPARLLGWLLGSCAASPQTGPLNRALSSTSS
In words: Radioligand Binding Assay A ([3H]PGD2 filtration binding, HEK-hCRTH2 membranes). As for the experimental part:
Radioligand binding assays were performed at room temperature in 50 mM Tris-HCl pH 7.4, 1 mM EDTA containing 2 mM MnCl2 and 3.0 nM [^3H]PGD2 (New England Nuclear, Boston, Mass.) (171 Ci mmol^−1), in a final volume of 0.2 ml. Competing ligands were diluted in dimethylsulfoxide (Me2SO) that was kept constant at 1% (v/v) of the final incubation volume. The reaction was initiated by the addition of 8-20 μg of membrane protein prepared from a human embryonic kidney (HEK)-hCRTH2 cell line. Total and non-specific binding were determined in the absence and the presence of 10 μM PGD2, respectively. Under these conditions, specific binding (total minus non-specific) of the radioligand to the receptor reached equilibrium within 50 min and was stable up to 180 min. The reaction was routinely conducted for 60 min at room temperature and terminated by rapid filtration through prewetted (0.3% polyethyleneimine) 96-well printed Filtermate™ (Wallac) using a Tomtec® harvester (Hamden, Conn.). After washing with cold buffer, the filter was dried for 2 minutes in microwave, and Meltilex Scintillator sheet (Wallac) was melted on for 2 min. The radioactivity was measured with Betaplate model 1205 (Wallac).

Compound `C[C@@H](CNC(=O)c1ccc2nc(-c3ccc(F)cc3)c(CCCCC(=O)O)cc2c1)c1ccccc1` [Compound 5AB, (R)-5-(2-(4-fluorophenyl)-6-((2-phenylpropyl)carbamoyl)quinolin-3-yl)pentanoic acid] showed a pKi (Table A, rated A-D) of 7.70 to 8.68.

For the compound `Cc1ccc(CNC(=O)c2ccc3nc(-c4ccccc4)c(CCCCC(=O)O)cc3c2)cc1` [Compound 1E, 6-[[[(4-methylphenyl)methyl]amino]carbonyl]-2-phenyl-3-quinolinepentanoic acid], the pKi was 7.70 to 8.68 (Table A, rated A-D) and 8.36 (values in text).

Consider `O=C(O)CCCCc1cc2cc(C(=O)N[C@H]3CCCc4cc(Cl)ccc43)cnc2nc1-c1ccc(F)cc1` [Compound 6N, 6-[[(6-chloro-1,2,3,4-tetrahydro-1(S)-naphthalenyl)amino]carbonyl]-2-(4-fluorophenyl)-1,8-naphthyridine-3-pentanoic acid], for which, under “Table A, rated A-D”, the negative logarithm of the Ki (pKi) was 6.70 to 7.70.

With `C[C@H](NC(=O)c1ccc2nc(-c3ccc(F)cc3)c(CCCCC(=O)O)cc2c1)c1cc(Cl)cc(Cl)c1` [Compound 5Y, 6-[[[1(S)-(3,5-dichlorophenyl)ethyl]amino]carbonyl]-2-(4-fluorophenyl)-3-quinolinepentanoic acid], the pKi (Table A, rated A-D) is 7.70 to 8.68.

As to `O=C(O)CCCCc1cc2cc(C(=O)N[C@H](c3cc(Cl)cc(Cl)c3)C(F)(F)F)cnc2nc1-c1ccc(F)cc1` [Compound 6Q, 6-[[[1(R)-(3,5-dichlorophenyl)-2,2,2-trifluoroethyl]amino]carbonyl]-2-(4-fluorophenyl)-1,8-naphthyridine-3-pentanoic acid], the pKi (Table A, rated A-D) was 7.70 to 8.68.

With `O=C(O)CCCCc1cc2cc(C(=O)NCCCN3CCCC3)ccc2nc1-c1ccccc1` [Compound 1Z, 2-phenyl-6-[[[3-(1-pyrrolidinyl)propyl]amino]carbonyl]-3-quinolinepentanoic acid], the negative logarithm of the Ki (pKi) (Table A, rated A-D) was 6.15 to 6.70 and the pKi (values in text) is 6.24.

As for `O=C(O)CCCCc1cc2cc(C(=O)N[C@@H]3CCCc4ccccc43)ccc2nc1-c1ccc(F)cc1` [Compound 5G, 2-(4-fluorophenyl)-6-[[(1,2,3,4-tetrahydro-1(R)-naphthalenyl)amino]carbonyl]-3-quinolinepentanoic acid], the pKi reads like this: (Table A, rated A-D) 7.70 to 8.68; (values in text) 8.59.

`O=C(O)CCCCc1nc2cc(C(=O)N3CC(c4ccccc4)C3)ccc2cc1-c1ccccc1` [Compound 3L, 3-phenyl-7-[(3-phenyl-1-azetidinyl)carbonyl]-2-quinolinepentanoic acid]: the pKi (Table A, rated A-D) was 8.70 to 10.00.

For the compound `CN(Cc1ccc(C(F)(F)F)cc1)C(=O)c1ccc2nc(-c3ccc(F)cc3)c(CCCCC(=O)O)cc2c1` [Compound 5V, 2-(4-fluorophenyl)-6-[[methyl[[4-(trifluoromethyl)phenyl]methyl]amino]carbonyl]-3-quinolinepentanoic acid], the pKi (Table A, rated A-D) is 7.70 to 8.68.

With `O=C(O)CCCCc1cc2cc(C(=O)N[C@H]3CCCc4ccccc43)ccc2nc1-c1ccccc1` [Compound 1P, 2-phenyl-6-[[(1,2,3,4-tetrahydro-1(S)-naphthalenyl)amino]carbonyl]-3-quinolinepentanoic acid], the pKi (Table A, rated A-D) is 7.70 to 8.68.

Where the note is “Table A, rated A-D”, `O=C(O)CCCCc1nc2cc(C(=O)NCc3cccc(Cl)c3)ccc2cc1-c1ccccc1` [Compound 4, 5-(7-(3-chlorobenzylcarbamoyl)-3-phenylquinolin-2-yl)pentanoic acid] had a negative-log Ki (pKi) of 8.70 to 10.00.

Turning to `C[C@H](NC(=O)c1ccc2nc(-c3ccc(F)cc3)c(CCCCC(=O)O)cc2c1)c1ccc(F)cc1` [Compound 5J, 2-(4-fluorophenyl)-6-[[[1(S)-(4-fluorophenyl)ethyl]amino]carbonyl]-3-quinolinepentanoic acid], the pKi (Table A, rated A-D) is 7.70 to 8.68.

For the setting “Table A, rated A-D”, `COc1ccc([C@H](NC(=O)c2cnc3nc(-c4ccc(F)cc4)c(CCCCC(=O)O)cc3c2)C(F)(F)F)cc1` [Compound 6P, 2-(4-fluorophenyl)-6-[[[2,2,2-trifluoro-1(S)-(4-methoxyphenyl)ethyl]amino]carbonyl]-1,8-naphthyridine-3-pentanoic acid] gave a pKi of 6.70 to 7.70.

Turning to `O=C(O)CCCCc1cc2cc(C(=O)N[C@H]3CCCc4ccc(F)cc43)ccc2nc1-c1ccc(F)cc1` [Compound 5N, 2-(4-fluorophenyl)-6-[[(7-fluoro-1,2,3,4-tetrahydro-1(S)-naphthalenyl)amino]carbonyl]-3-quinolinepentanoic acid], the pKi is, setting by setting: (Table A, rated A-D) 6.70 to 7.70; (values in text) 7.59.

Compound `O=C(O)CCCCc1cc2cc(C(=O)OCc3ccccc3)ccc2nc1-c1ccccc1` [Compound 2D, 2-phenyl-6-[(phenylmethoxy)carbonyl]-3-quinolinepentanoic acid] showed a pKi (Table A, rated A-D) of 8.70 to 10.00.

`O=C(O)CCCCc1cc2cc(C(=O)NCc3ccc(OC(F)(F)F)cc3)ccc2nc1-c1ccccc1` [Compound 1, 5-(2-phenyl-6-(4-(trifluoromethoxy)benzylcarbamoyl)quinolin-3-yl)pentanoic acid trifluoroacetate]: the pKi (Table A, rated A-D) was 7.70 to 8.68.

Consider `CN(Cc1cccc(C(F)(F)F)c1)C(=O)c1ccc2nc(-c3ccc(F)cc3)c(CCCCC(=O)O)cc2c1` [Compound 5W, 2-(4-fluorophenyl)-6-[[methyl[[3-(trifluoromethyl)phenyl]methyl]amino]carbonyl]-3-quinolinepentanoic acid], for which the pKi (Table A, rated A-D) was 6.70 to 7.70.

`O=C(O)CCCCc1cc2cc(C(=O)N3CCC[C@H](c4ccccc4)C3)ccc2nc1-c1ccccc1` [Compound 1L, 2-phenyl-6-[(3(R)-phenyl-1-piperidinyl)carbonyl]-3-quinolinepentanoic acid] gave a pKi (Table A, rated A-D) of 7.70 to 8.68.

In turn, `O=C(O)CCCCc1cc2cc(C(=O)NCc3ccc(C(F)(F)F)nc3)ccc2nc1-c1ccccc1` [Compound 1V, 2-phenyl-6-[[[[6-(trifluoromethyl)-3-pyridinyl]methyl]amino]carbonyl]-3-quinolinepentanoic acid] showed a pKi (Table A, rated A-D) of 7.70 to 8.68.

As to `O=C(O)CCCCc1cc2cc(C(=O)N[C@@H]3CCc4cc(Cl)ccc43)ccc2nc1-c1ccc(F)cc1` [Compound 5o, 6-[[(5-chloro-2,3-dihydro-1H-inden-1(R)-yl)amino]carbonyl)-2-(4-fluorophenyl)-3-quinolinepentanoic acid], the pKi by setting is: (Table A, rated A-D) 7.70 to 8.68; (values in text) 8.57.

As for `C[C@@H](NC(=O)c1ccc2nc(-c3ccccc3)c(CCCCC(=O)O)cc2c1)c1ccc(Cl)cc1` [Compound 1AD, 6-[[[1(R)-(4-chlorophenyl)ethyl]amino]carbonyl]-2-phenyl-3-quinolinepentanoic acid], the pKi reads like this: (Table A, rated A-D) 7.70 to 8.68; (values in text) 8.46.

With `C[C@@H](NC(=O)c1ccc2cc(-c3ccccc3)c(CCCCC(=O)O)nc2c1)c1ccc(F)cc1` [Compound 4E, (R)-5-(7-(1-(4-fluorophenyl)ethylcarbamoyl)-3-phenylquinolin-2-yl)pentanoic acid], where the note is “Table A, rated A-D”, the pKi is 8.70 to 10.00.

For `O=C(O)CCCCc1cc2cc(C(=O)N[C@@H]3CCCc4ccc(F)cc43)cnc2nc1-c1ccc(F)cc1` [Compound 6H, 2-(4-fluorophenyl)-6-[[(7-fluoro-1,2,3,4-tetrahydro-1(R)-naphthalenyl)amino]carbonyl]-1,8-naphthyridine-3-pentanoic acid], the pKi was 6.70 to 7.70 (Table A, rated A-D) and 6.79 (values in text).

In the case of `O=C(O)CCCCc1cc2cc(C(=O)N[C@@H](c3cc(Cl)cc(Cl)c3)C(F)(F)F)cnc2nc1-c1ccc(F)cc1` [Compound 6R, 6-[[[1(S)-(3,5-dichlorophenyl)-2,2,2-trifluoroethyl]amino]carbonyl]-2-(4-fluorophenyl)-1,8-naphthyridine-3-pentanoic acid], the pKi (Table A, rated A-D) is 7.70 to 8.68.
